Source: PMC7280195, “Simple ammonium salts acting on sigma-1 receptors yield potential treatments for cancer and depression” (Scientific Reports, 2020)
Structures can show the parent of a compound that is named as a salt. Where two headings read alike, the source gives them in different places.

What was measured:
dopamine transporter = system: dopamine transporter; parameters: method as in PMID 10525084; details: read-out: dopamine transport inhibition, previously published; cited from earlier work
sigma-2 receptor = target: T1, sigma-2 receptor (Homo sapiens, UniProt Q5BJF2); experiment: biochemical; type: binding
T1 construct: MCF7 cells were suspended in sigma-2 assay buffer (50 mM Tris-HCl; pH 8.0), sonicated (1 minute) and the homogenate was centrifuged; endogenous in cells; host or cells: MCF7 cells (gift), membrane pellet

MDA-MB-468 cells [1] = details: cited from earlier work
MDA-MB-468 cells [2] = details: cited from earlier work; remark: listed apart in the source
[3] = target: muscarinic acetylcholine receptor; type: binding, rat; details: for mACh R affinity pKi ± SEM (n) / Ki: rat brain membranes; for mACh R affinity pKi ± SEM (n): 1.35 nM [3H] QNB; for Ki: read-out: mACh R affinity Ki; for mACh R Ki/σ-1 R Ki: ratio between Ki values
mice = experiment: Forced-swim test; type: in vivo; details: doses up to 10 mg.kg−1
[4] = target: human noradrenaline transporter (Homo sapiens, UniProt P23975); experiment: Monoamine transporter uptake assay, 293 cells expressing noradrenaline transporter; type: cell-based; details: read-out: IC50 noradrenaline transport
MDA-MB-468 cells [5] = experiment: Fura-2 cytoplasmic calcium measurement in MDA-MB-468 cells; type: cell-based; details: data not shown
MCF7 cells = type: cell-based
MDA-MB-468 cells [6] = experiment: cells; type: cell-based
[7] = target: T2, human dopamine transporter (Homo sapiens, UniProt Q01959); experiment: Monoamine transporter uptake assay, 293 cells expressing dopamine transporter; type: cell-based; details: read-out: IC50 dopamine transport
T2 construct: expressed in transfected cells

MAC13 cells = experiment: MTS assay in MAC13 cells in vitro; type: cell-based, mouse; details: mean ± SEM, n = 6
Experimental: Cells (10,000 cells per well, 100 μl) were seeded into 96-well plates and allowed to adhere overnight. The following day drugs were added and cells were permitted to proliferate for 24 hours before the addition of 10 μl CellTiter 96 AQueous Non-Radioactive Cell Proliferation Assay reagent (Promega, Southampton, UK) as previously described. Absorbance (490 nm) readings were taken at 0, 1, 2 and 3 hours to monitor formazan formation and rates of metabolic activity were compared.

human 5-HT transporter = human 5-HT transporter (Homo sapiens, UniProt P31645); type: cell-based; details: read-out: IC50 serotonin reuptake
Sequence of human 5-HT transporter (P31645 whole entry): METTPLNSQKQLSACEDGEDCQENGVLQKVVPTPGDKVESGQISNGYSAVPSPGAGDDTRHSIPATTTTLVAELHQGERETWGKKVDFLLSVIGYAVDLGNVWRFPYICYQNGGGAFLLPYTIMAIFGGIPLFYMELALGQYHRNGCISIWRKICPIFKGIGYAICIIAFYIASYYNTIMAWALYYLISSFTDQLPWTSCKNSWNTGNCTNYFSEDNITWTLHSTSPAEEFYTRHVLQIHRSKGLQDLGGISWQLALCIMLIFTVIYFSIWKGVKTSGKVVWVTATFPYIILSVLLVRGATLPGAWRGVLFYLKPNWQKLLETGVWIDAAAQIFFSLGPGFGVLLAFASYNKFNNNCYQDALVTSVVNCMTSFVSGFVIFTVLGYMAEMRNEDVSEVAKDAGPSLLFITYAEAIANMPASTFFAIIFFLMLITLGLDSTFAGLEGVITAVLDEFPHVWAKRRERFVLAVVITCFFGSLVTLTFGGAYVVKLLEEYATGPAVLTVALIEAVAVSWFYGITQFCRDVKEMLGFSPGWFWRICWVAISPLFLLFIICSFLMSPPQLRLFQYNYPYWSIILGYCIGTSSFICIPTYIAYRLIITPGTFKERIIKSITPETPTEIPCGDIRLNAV

T1 sequence (Q5BJF2 whole entry): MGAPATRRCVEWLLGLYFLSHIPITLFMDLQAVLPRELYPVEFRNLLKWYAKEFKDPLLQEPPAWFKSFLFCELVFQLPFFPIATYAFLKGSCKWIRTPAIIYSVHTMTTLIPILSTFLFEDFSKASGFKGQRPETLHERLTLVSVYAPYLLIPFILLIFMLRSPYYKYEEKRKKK
Sequence of human noradrenaline transporter (P23975 whole entry): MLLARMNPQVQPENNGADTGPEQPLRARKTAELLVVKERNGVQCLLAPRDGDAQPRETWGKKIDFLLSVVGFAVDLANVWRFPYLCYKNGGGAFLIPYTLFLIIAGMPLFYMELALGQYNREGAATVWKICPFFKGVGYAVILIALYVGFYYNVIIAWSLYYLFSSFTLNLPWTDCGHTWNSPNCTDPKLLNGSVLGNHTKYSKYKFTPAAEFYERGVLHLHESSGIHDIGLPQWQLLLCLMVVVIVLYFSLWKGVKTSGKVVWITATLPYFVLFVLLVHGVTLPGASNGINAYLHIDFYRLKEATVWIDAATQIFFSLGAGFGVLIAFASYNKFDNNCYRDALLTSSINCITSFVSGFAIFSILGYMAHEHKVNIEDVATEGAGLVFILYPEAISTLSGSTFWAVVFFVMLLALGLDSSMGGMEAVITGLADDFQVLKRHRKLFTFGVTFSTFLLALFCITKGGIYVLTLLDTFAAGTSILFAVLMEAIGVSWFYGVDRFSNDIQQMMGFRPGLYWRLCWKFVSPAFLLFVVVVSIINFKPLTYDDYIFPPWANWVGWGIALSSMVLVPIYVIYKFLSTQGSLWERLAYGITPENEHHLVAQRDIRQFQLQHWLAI
T2 sequence (Q01959 whole entry): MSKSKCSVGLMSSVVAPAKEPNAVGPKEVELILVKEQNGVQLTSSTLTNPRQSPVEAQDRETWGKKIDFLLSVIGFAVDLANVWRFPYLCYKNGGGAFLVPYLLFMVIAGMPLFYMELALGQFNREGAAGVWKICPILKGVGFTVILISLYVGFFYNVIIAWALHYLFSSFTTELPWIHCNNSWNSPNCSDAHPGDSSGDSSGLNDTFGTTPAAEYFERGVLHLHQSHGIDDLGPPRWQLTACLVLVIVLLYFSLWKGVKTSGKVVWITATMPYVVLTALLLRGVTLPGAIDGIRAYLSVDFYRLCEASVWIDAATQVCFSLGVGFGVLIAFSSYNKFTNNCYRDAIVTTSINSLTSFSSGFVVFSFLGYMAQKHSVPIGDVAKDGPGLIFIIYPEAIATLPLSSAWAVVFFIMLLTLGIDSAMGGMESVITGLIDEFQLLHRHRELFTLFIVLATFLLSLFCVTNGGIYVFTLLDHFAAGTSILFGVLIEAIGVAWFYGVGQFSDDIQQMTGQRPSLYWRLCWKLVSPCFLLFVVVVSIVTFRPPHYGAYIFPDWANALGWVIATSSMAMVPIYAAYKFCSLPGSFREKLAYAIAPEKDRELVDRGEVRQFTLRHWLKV

For `CCCCCCN.Cl` [Hexyl], the “σ-2 R affinity pKi ± SEM (n)” value (sigma-2 receptor) was 5.1 ± 0.2 (3) and the Ki (sigma-2 receptor; read-out: σ-2 R affinity Ki) was 7.8 µM.

For `N=C(Nc1ccc(I)cc1)NC1C2CC3CC(C2)CC1C3` (centres unmarked) [IPAG, 1-(4-iodophenyl)-3-(2-adamantyl)guanidine], the “pEC50 reduction of cellular metabolic activity” value (MDA-MB-468 cells [1]) is listed as 4.6, the EC50 (MDA-MB-468 cells [1]; read-out: EC50 reduction of cellular metabolic activity) is listed as 24 µM and the pEC50 calcium signalling (MDA-MB-468 cells [2]) is listed as 3.9. The EC50 (MDA-MB-468 cells [2]; read-out: EC50 calcium signalling) was 123 µM and the “mACh R affinity pKi ± SEM (n)” value [3] was 4.3.

For `CCCCCCCCN.Cl` [Octyl], the “σ-2 R affinity pKi ± SEM (n)” value (sigma-2 receptor) was 5.2 ± 0.2 (3) and the Ki (sigma-2 receptor; read-out: σ-2 R affinity Ki) was 6.2 µM.

With `CCCCCN` [Pentyl] the “σ-2 R affinity pKi ± SEM (n)” value (sigma-2 receptor) was 3.9 ± 0.1 (3) and the Ki (sigma-2 receptor; read-out: σ-2 R affinity Ki) was 130 µM.

With `CCCN` [Propyl] the “σ-2 R affinity pKi ± SEM (n)” value (sigma-2 receptor) was <3 (3).

In the case of `C[C@@H]1CN(CCCn2c3ccccc3c3ccccc32)C[C@H](C)N1` [Rimcazole, 9-[3-(cis−3,5-dimethyl-1-piperizinyl)propyl]-9H-carbazole dihydrochloride, reference compound], the “mACh R affinity pKi ± SEM (n)” value [3] is reported as 4.49 ± 0.10 (7), the “mACh R affinity pKi ± SEM (n)” value ([3]; listed as rimcazole) is reported as 4.5 ± 0.1 and the Ki [3] is reported as 32 µM.

In the case of `CCCC[N+](CCCC)(CCCC)CCCC` [Tetrabutyl, tetrabutylammonium], the Ki (sigma-2 receptor) is reported as 60 µM.

With `CC[N+](CC)(CC)CC` [Tetraethyl] the “σ-2 R affinity pKi ± SEM (n)” value (sigma-2 receptor) was <3 (3).

With `CCCCCCCCCCCCN(CCCCCCCCCCCC)CCCCCCCCCCCC` [Tridodecyl] the “σ-2 R affinity pKi ± SEM (n)” value (sigma-2 receptor) was 4.1 ± 0.6 (3) and the Ki (sigma-2 receptor; read-out: σ-2 R affinity Ki) was 76 µM.

For `CCN(CC)CC` [Triethyl], the “σ-2 R affinity pKi ± SEM (n)” value (sigma-2 receptor) was 3.66 ± 0.04 (3) and the Ki (sigma-2 receptor; read-out: σ-2 R affinity Ki) was 220 µM.

In the case of `CCCCCCN(CCCCCC)CCCCCC` [Trihexyl, trihexylammonium], the “σ-2 R affinity pKi ± SEM (n)” value (sigma-2 receptor) is reported as 6.63 ± 0.03 (3) and the Ki (sigma-2 receptor; read-out: σ-2 R affinity Ki) is reported as 0.23 µM.

For `CC(C)CN(CC(C)C)CC(C)C.Cl` [Triisobutyl], the “σ-2 R affinity pKi ± SEM (n)” value (sigma-2 receptor) was 5.46 ± 0.06 (3) and the Ki (sigma-2 receptor; read-out: σ-2 R affinity Ki) was 3.5 µM.

For `CN(C)C.Cl` [Trimethyl], the “σ-2 R affinity pKi ± SEM (n)” value (sigma-2 receptor) was <3 (3).

In the case of `CCCCCCCCN(CCCCCCCC)CCCCCCCC.Cl` [Trioctyl], the “σ-2 R affinity pKi ± SEM (n)” value (sigma-2 receptor) is reported as 3.74 ± 0.06 (3) and the Ki (sigma-2 receptor; read-out: σ-2 R affinity Ki) is reported as 180 µM.

In the case of `CCCCCN(CCCCC)CCCCC` [Tripentyl, tripentylammonium], the “effect on immobility time, forced-swim test” value (mice) is reported as “did not have any significant effect”, the “mACh R affinity pKi ± SEM (n)” value [3] is reported as 4.3 ± 0.4 (4) and the Ki [3] is reported as 47 µM. The “mACh R Ki/σ-1 R Ki” value [3] was 3130, the “σ-2 R affinity pKi ± SEM (n)” value (sigma-2 receptor) was 6.1 ± 0.1 (3) and the Ki (sigma-2 receptor; read-out: σ-2 R affinity Ki) was 0.78 µM.

For `CCCN(CCC)CCC` [Tripropyl], the “σ-2 R affinity pKi ± SEM (n)” value (sigma-2 receptor) was 4.36 ± 0.07 (3) and the Ki (sigma-2 receptor; read-out: σ-2 R affinity Ki) was 44 µM.

For triisopentylammonium, the IC50 [4] was 7800 µM, the “concentration showing a calcium response” value (MDA-MB-468 cells [5]) was no less than 1 mM and the “effect on MCF7 cells in MTS assay” value (MCF7 cells) was “without effect”. For the same compound, the “pIC50 reduction of cell metabolism” value (MDA-MB-468 cells [6]) was 2.96 ± 0.06, the “pIC50 reduction of cell metabolism, non-targeting control” value (MDA-MB-468 cells [6]) was 2.9 ± 0.2 and the “MAC13 tumour growth compared to vehicle control” value (MAC13 tumours; 10 mg.kg−1 i.v. daily from day 12, P < 0.001) was “statistically significant reduction in tumour growth”. The “tolerability in tumour-bearing mice” value (MAC13 tumours; 10 mg.kg−1 i.v. daily, grooming activity maintained) was “no negative signs”, the IC50 [7] was 1600 µM and the “pIC50 reduction in MAC13 cell metabolism” value (MAC13 cells) was 4.4 ± 0.2. The IC50 (human 5-HT transporter) was 7800 µM, the “mACh R affinity pKi ± SEM (n)” value [3] was 3.60 ± 0.11 (5) and the Ki [3] was 251 µM. The “mACh R Ki/σ-1 R Ki” value [3] was 3.4, the “higher affinity for sigma-2 receptors over sigma-1 receptors” value (sigma-2 receptor) was 200 fold and the “σ-2 R affinity pKi ± SEM (n)” value (sigma-2 receptor) was 6.40 ± 0.09 (3). The Ki (sigma-2 receptor; read-out: σ-2 R affinity Ki) was 0.4 µM.
